Test results reported in ChEMBL document CHEMBL1201862, “PubChem BioAssay data set” (2004).
Several values for one entry are separate records, joined by “and”; a condition that tells them apart may be missing. Equal values may be shown once.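 Cultured in 96-well plates, cells were exposed to test compound for 48 hours across five concentrations. The concentration for 50% growth inhibition is given as GI50.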 Activity calls are given as the source filed them. Cut-off read from the data, not from the text of the source: active = GI50 up to about 1.1 µM and inactive = higher.

What was measured:
Assay in all cases: NCI anticancer screen, dose series, 48 h
786-0 = test system: 786-0
A498 = test system: A498
A549 = test system: A549
ACHN = test system: ACHN
BT-549 = test system: BT-549
CAKI-1 = test system: CAKI-1
CCRF-CEM = test system: CCRF-CEM
COLO 205 = test system: COLO 205
DU-145 = test system: DU-145
EKVX = test system: EKVX
HCC 2998 = test system: HCC 2998
HCT-116 = test system: HCT-116
HCT-15 = test system: HCT-15
HL-60 = test system: HL-60
HOP-62 = test system: HOP-62
HOP-92 = test system: HOP-92
HT-29 = test system: HT-29
Hs-578T = test system: Hs-578T
IGROV-1 = test system: IGROV-1
K562 = test system: K562
KM12 = test system: KM12
LOX IMVI = test system: LOX IMVI
M14 = test system: M14
MCF7 = test system: MCF7
MDA-MB-231 = test system: MDA-MB-231
MDA-MB-435 = test system: MDA-MB-435
MOLT-4 = test system: MOLT-4
NCI-H226 = test system: NCI-H226
NCI-H23 = test system: NCI-H23
NCI-H522 = test system: NCI-H522
NCI/ADR-RES = test system: NCI/ADR-RES
OVCAR-3 = test system: OVCAR-3
OVCAR-4 = test system: OVCAR-4
OVCAR-5 = test system: OVCAR-5
OVCAR-8 = test system: OVCAR-8
PC-3 = test system: PC-3
RPMI-8226 = test system: RPMI-8226
RXF 393 = test system: RXF 393
SF-268 = test system: SF-268
SF-295 = test system: SF-295
SF-539 = test system: SF-539
SK-MEL-28 = test system: SK-MEL-28
SK-MEL-2 = test system: SK-MEL-2
SK-MEL-5 = test system: SK-MEL-5
SK-OV-3 = test system: SK-OV-3
SN12C = test system: SN12C
SNB-19 = test system: SNB-19
SNB-75 = test system: SNB-75
SR = test system: SR
SW-620 = test system: SW-620
T47D = test system: T47D
TK-10 = test system: TK-10
U-251 = test system: U-251
UACC-257 = test system: UACC-257
UACC-62 = test system: UACC-62
UO-31 = test system: UO-31
Malme-3M = test system: Malme-3M
NCI-H460 = test system: NCI-H460
MDA-N = test system: MDA-N

Measured: GI50

CC(C)=C1C(=O)C[C@]2(C)C[C@H]3/C(=C(/C)CCC12)CC[C@@]3(C)O (some centres undefined)
inactive: 786-0 > 50 µM | A498 > 50 µM | A549 > 50 µM | ACHN > 50 µM | BT-549 > 50 µM | CAKI-1 > 50 µM | CCRF-CEM 20.3 µM | COLO 205 45 µM | DU-145 > 50 µM | EKVX > 50 µM | HCC 2998 > 50 µM | HCT-116 46.2 µM | HL-60 11.3 µM | HOP-62 > 50 µM | HOP-92 > 50 µM | HT-29 > 50 µM | Hs-578T > 50 µM | IGROV-1 > 50 µM | K562 22.2 µM | KM12 18.2 µM | LOX IMVI > 50 µM | M14 > 50 µM | MCF7 > 50 µM | MDA-MB-231 > 50 µM | MDA-MB-435 > 50 µM | MOLT-4 14.9 µM | NCI-H226 > 50 µM | NCI-H23 > 50 µM | NCI-H522 29 µM | NCI/ADR-RES > 50 µM | OVCAR-3 37.7 µM | OVCAR-4 > 50 µM | OVCAR-5 > 50 µM | OVCAR-8 > 50 µM | PC-3 30.7 µM | RPMI-8226 > 50 µM | RXF 393 40.9 µM | SF-268 > 50 µM | SF-295 > 50 µM | SF-539 > 50 µM | SK-MEL-28 > 50 µM | SK-MEL-2 > 50 µM | SK-MEL-5 40.4 µM | SK-OV-3 > 50 µM | SN12C > 50 µM | SNB-19 > 50 µM | SNB-75 19.1 µM | SR 20.7 µM | SW-620 > 50 µM | T47D 46.9 µM | TK-10 > 50 µM | U-251 > 50 µM | UACC-257 > 50 µM | UACC-62 > 50 µM | UO-31 > 50 µM
40.1 µM: HCT-15

N#Cc1c(N)nc(Sc2ccccc2N)c(C#N)c1-c1ccccc1
active: HL-60 0.141 µM
15.2 µM: HCT-15
inactive: 786-0 13.5 µM | A549 19.4 µM | ACHN 19.9 µM | BT-549 10.8 µM | CAKI-1 28.6 µM | COLO 205 35.7 µM | DU-145 14.8 µM | EKVX 16.2 µM | HCC 2998 15 µM | HCT-116 15.7 µM | HOP-62 22.1 µM | HOP-92 24.5 µM | HT-29 24.5 µM | IGROV-1 16.9 µM | K562 9.53 µM | KM12 17.8 µM | LOX IMVI 12.9 µM | M14 24.2 µM | MCF7 10.6 µM | MDA-MB-231 14 µM | MDA-MB-435 23.6 µM | MOLT-4 11.6 µM | Malme-3M 16.9 µM | NCI-H226 47.2 µM | NCI-H23 13.3 µM | NCI-H460 14.8 µM | NCI/ADR-RES 11.5 µM | OVCAR-4 15.9 µM | OVCAR-5 46.3 µM | OVCAR-8 20.2 µM | PC-3 9.64 µM | RPMI-8226 12.7 µM | SF-268 17.8 µM | SF-539 26.9 µM | SK-MEL-28 28.2 µM | SK-MEL-2 10.9 µM | SK-MEL-5 19.4 µM | SNB-19 29.4 µM | SR 21 µM | SW-620 30.9 µM | TK-10 11.5 µM | U-251 19.6 µM | UACC-257 24.9 µM | UACC-62 10.3 µM | UO-31 11.4 µM

CC(C)CC(C/C=C1/CC(CO)(COC(=O)C(C)(C)C)OC1=O)CC(C)C (centres undefined)
15 µM and 14.7 µM: HCT-15
inactive: A498 10 µM and 9.02 µM | BT-549 11.7 µM and 15.5 µM | HCC 2998 1.28 µM and 1.27 µM | HCT-116 15.9 µM and 13.8 µM | IGROV-1 15.2 µM and 12.1 µM | M14 12.1 µM and 13.8 µM | MCF7 19.7 µM and 18.2 µM | MDA-MB-231 3.03 µM | MOLT-4 1.3 µM and 2.14 µM | NCI-H23 11.8 µM and 10.9 µM | NCI-H522 14.1 µM and 14.8 µM | NCI/ADR-RES 14 µM and 17.4 µM | OVCAR-4 16.2 µM and 18.2 µM | OVCAR-5 6.7 µM and 11.8 µM | OVCAR-8 19 µM and 17 µM | PC-3 8.89 µM and 8.83 µM | RXF 393 16.1 µM and 21.8 µM | SF-268 10.8 µM and 12.4 µM | SF-539 6.49 µM | SK-MEL-2 16.4 µM and 11.9 µM | SK-OV-3 19.3 µM | SN12C 8.49 µM | SNB-19 10.5 µM and 6.03 µM | SNB-75 13.7 µM and 11.1 µM | SR 1.51 µM | SW-620 4.37 µM and 4.92 µM | T47D 19.5 µM and 11.7 µM | U-251 8.13 µM | UACC-257 16.4 µM and 16.8 µM | UACC-62 11.7 µM and 15.2 µM
active: CCRF-CEM 0.069 µM | COLO 205 0.136 µM | HOP-92 0.893 µM | K562 173 nM and 123 nM | MDA-MB-435 410 nM and 818 nM | NCI-H460 278 nM and 209 nM

COc1cc2c[n+](C)c3c4cc(OC)c(OC)cc4ccc3c2cc1OC
inactive: 786-0 > 100 µM | A549 > 100 µM | ACHN > 100 µM | BT-549 32.1 µM | CAKI-1 > 100 µM | CCRF-CEM 35.3 µM | COLO 205 15.8 µM | DU-145 25.4 µM | EKVX > 100 µM | HCC 2998 > 100 µM | HCT-116 > 100 µM | K562 26.1 µM | M14 > 100 µM | MDA-MB-435 > 100 µM | OVCAR-3 29.1 µM | OVCAR-4 55.3 µM | PC-3 72.9 µM | RPMI-8226 48 µM | SF-295 > 100 µM | SK-MEL-28 > 100 µM | SK-MEL-2 > 100 µM | SK-OV-3 > 100 µM | SW-620 91.2 µM | UACC-257 > 100 µM | UACC-62 > 100 µM | UO-31 > 100 µM
> 100 µM: HCT-15

O=[N+]([O-])C(/C=C(\Cl)[N+](=O)[O-])=C(N1CCOCC1)N1CCOCC1
active: Hs-578T 0.232 µM
> 100 µM: HCT-15
inactive: 786-0 16.7 µM | A498 27 µM | A549 19.4 µM | ACHN 41.7 µM | CAKI-1 27.4 µM | CCRF-CEM 56.9 µM | COLO 205 19.8 µM | DU-145 > 100 µM | EKVX > 100 µM | HCC 2998 24 µM | HCT-116 25.3 µM | HL-60 18.4 µM | HOP-62 20.9 µM | HOP-92 25.4 µM | HT-29 33.4 µM | IGROV-1 > 100 µM | K562 18.3 µM | KM12 > 100 µM | LOX IMVI 85.9 µM | M14 > 100 µM | MCF7 17.6 µM | MDA-MB-231 23.3 µM | MDA-MB-435 > 100 µM | MDA-N > 100 µM | MOLT-4 50.2 µM | Malme-3M 27.2 µM | NCI-H226 > 100 µM | NCI-H23 > 100 µM | NCI-H460 > 100 µM | NCI-H522 41.8 µM | NCI/ADR-RES > 100 µM | OVCAR-3 19.7 µM | OVCAR-4 25.9 µM | OVCAR-5 21.2 µM | OVCAR-8 > 100 µM | PC-3 > 100 µM | RPMI-8226 26.5 µM | RXF 393 31.5 µM | SF-268 35.5 µM | SF-295 > 100 µM | SF-539 22.3 µM | SK-MEL-28 > 100 µM | SK-MEL-2 > 100 µM | SK-MEL-5 > 100 µM | SK-OV-3 > 100 µM | SN12C > 100 µM | SNB-19 > 100 µM | SNB-75 50.5 µM | SR 39.6 µM | T47D 24.5 µM | TK-10 47 µM | U-251 24.6 µM | UACC-257 > 100 µM | UACC-62 85.7 µM | UO-31 36.6 µM
